Measurements: the NIST ThermoML archive (doi:10.1021/je060137q)

Experiments:
[1] = for surface tension liquid-gas: Pendant drop shape; for mass density: 101 kPa, Liquid
[2] = xn = mol fraction of the nth substance listed; conditions: for surface tension liquid-gas: Pendant drop shape; for mass density: 101 kPa, Liquid

Cc1ccc(C)c(C)c1 [1,2,4-trimethylbenzene]
[1]
Conditions	mass density [kg/m3]	surface tension liquid-gas [mN/m]
298.15 K	871.64	29.29
313.15 K	859.5	27.67

Cc1ccc(C)c(C)c1 [1,2,4-trimethylbenzene] + CCOC(=O)OCC
[2]
Conditions	mass density [kg/m3]	surface tension liquid-gas [mN/m]
298.15 K, x2 = 0	871.64	29.29
298.15 K, x2 = 0.0501	875.81	–
298.15 K, x2 = 0.1005	880.1	28.85
298.15 K, x2 = 0.1497	884.28	–
298.15 K, x2 = 0.1994	888.62	28.41
298.15 K, x2 = 0.2518	893.23	–
298.15 K, x2 = 0.2998	897.55	27.98
298.15 K, x2 = 0.3499	902.17	–
298.15 K, x2 = 0.4001	–	27.58
298.15 K, x2 = 0.4004	906.89	–
298.15 K, x2 = 0.4496	911.54	–
298.15 K, x2 = 0.5	916.38	27.23
298.15 K, x2 = 0.5494	921.22	–
298.15 K, x2 = 0.5997	926.24	–
298.15 K, x2 = 0.6497	931.3	–
298.15 K, x2 = 0.6998	936.41	–
298.15 K, x2 = 0.7505	941.72	–
298.15 K, x2 = 0.8001	947	–
298.15 K, x2 = 0.8499	952.36	–
298.15 K, x2 = 0.9	957.82	–
298.15 K, x2 = 0.95	963.45	–
313.15 K, x2 = 0	859.5	27.67
313.15 K, x2 = 0.0508	863.46	–
313.15 K, x2 = 0.1	–	27.16
313.15 K, x2 = 0.1005	867.43	–
313.15 K, x2 = 0.1486	871.36	–
313.15 K, x2 = 0.2002	–	26.69
313.15 K, x2 = 0.2012	875.71	–
313.15 K, x2 = 0.2507	879.88	–
313.15 K, x2 = 0.3005	–	26.23
313.15 K, x2 = 0.3007	884.17	–
313.15 K, x2 = 0.352	888.61	–
313.15 K, x2 = 0.3997	–	25.81
313.15 K, x2 = 0.4006	892.94	–
313.15 K, x2 = 0.4499	897.37	–
313.15 K, x2 = 0.4981	901.79	–
313.15 K, x2 = 0.5001	–	25.49
313.15 K, x2 = 0.5498	906.6	–
313.15 K, x2 = 0.597	911.06	–
313.15 K, x2 = 0.6481	915.93	–
313.15 K, x2 = 0.699	920.93	–
313.15 K, x2 = 0.7499	925.98	–
313.15 K, x2 = 0.8002	931.06	–
313.15 K, x2 = 0.8473	935.87	–
313.15 K, x2 = 0.9001	941.45	–
313.15 K, x2 = 0.9499	946.74	–

Cc1ccc(C)c(C)c1 [1,2,4-trimethylbenzene] + COC(=O)OC
[2]
Conditions	mass density [kg/m3]	surface tension liquid-gas [mN/m]
298.15 K, x2 = 0	871.64	29.29
298.15 K, x2 = 0.0499	876.93	–
298.15 K, x2 = 0.0999	882.55	28.93
298.15 K, x2 = 0.15	888.53	–
298.15 K, x2 = 0.2	894.76	28.64
298.15 K, x2 = 0.2498	901.22	–
298.15 K, x2 = 0.2995	908.07	–
298.15 K, x2 = 0.3001	–	28.34
298.15 K, x2 = 0.3502	915.53	–
298.15 K, x2 = 0.4001	923.26	28.21
298.15 K, x2 = 0.45	931.35	–
298.15 K, x2 = 0.5	939.96	28.08
298.15 K, x2 = 0.55	949.04	–
298.15 K, x2 = 0.5998	958.57	–
298.15 K, x2 = 0.65	968.9	–
298.15 K, x2 = 0.6999	979.71	–
298.15 K, x2 = 0.7497	991.22	–
298.15 K, x2 = 0.7997	1003.68	–
298.15 K, x2 = 0.8501	1017.1	–
298.15 K, x2 = 0.8999	1031.25	–
298.15 K, x2 = 0.9498	1046.57	–
313.15 K, x2 = 0	859.5	27.67
313.15 K, x2 = 0.0505	864.72	–
313.15 K, x2 = 0.1008	–	27.23
313.15 K, x2 = 0.1012	870.23	–
313.15 K, x2 = 0.15	875.75	–
313.15 K, x2 = 0.1999	–	26.82
313.15 K, x2 = 0.2008	881.92	–
313.15 K, x2 = 0.2491	887.96	–
313.15 K, x2 = 0.2996	–	26.51
313.15 K, x2 = 0.3003	894.87	–
313.15 K, x2 = 0.3498	901.76	–
313.15 K, x2 = 0.3991	–	26.29
313.15 K, x2 = 0.401	909.43	–
313.15 K, x2 = 0.4509	917.26	–
313.15 K, x2 = 0.5	–	26.11
313.15 K, x2 = 0.5008	925.59	–
313.15 K, x2 = 0.5507	934.32	–
313.15 K, x2 = 0.5998	943.46	–
313.15 K, x2 = 0.65	953.33	–
313.15 K, x2 = 0.6995	963.85	–
313.15 K, x2 = 0.7505	975.23	–
313.15 K, x2 = 0.7994	986.99	–
313.15 K, x2 = 0.8502	1000	–
313.15 K, x2 = 0.8976	1013.08	–
313.15 K, x2 = 0.9504	1028.72	–

Cc1cc(C)cc(C)c1 [1,3,5-trimethylbenzene]
[1]
Conditions	mass density [kg/m3]	surface tension liquid-gas [mN/m]
298.15 K	861.04	28.09
313.15 K	848.73	26.82

Cc1cc(C)cc(C)c1 [1,3,5-trimethylbenzene] + CCOC(=O)OCC
[2]
Conditions	mass density [kg/m3]	surface tension liquid-gas [mN/m]
298.15 K, x2 = 0	861.04	28.09
298.15 K, x2 = 0.05	865.43	–
298.15 K, x2 = 0.1	869.94	27.71
298.15 K, x2 = 0.15	874.61	–
298.15 K, x2 = 0.1999	879.3	27.37
298.15 K, x2 = 0.2501	884.12	–
298.15 K, x2 = 0.2999	889.01	27.01
298.15 K, x2 = 0.3498	893.96	–
298.15 K, x2 = 0.3999	899.08	26.76
298.15 K, x2 = 0.4499	904.28	–
298.15 K, x2 = 0.5006	909.64	26.56
298.15 K, x2 = 0.5497	914.93	–
298.15 K, x2 = 0.6001	920.47	–
298.15 K, x2 = 0.6498	926.07	–
298.15 K, x2 = 0.7007	931.9	–
298.15 K, x2 = 0.7495	937.62	–
298.15 K, x2 = 0.8004	943.71	–
298.15 K, x2 = 0.849	949.64	–
298.15 K, x2 = 0.9001	956.06	–
298.15 K, x2 = 0.9501	962.49	–
313.15 K, x2 = 0	848.73	26.82
313.15 K, x2 = 0.0502	852.95	–
313.15 K, x2 = 0.0997	–	26.36
313.15 K, x2 = 0.1001	857.31	–
313.15 K, x2 = 0.1497	861.7	–
313.15 K, x2 = 0.1995	–	25.95
313.15 K, x2 = 0.201	866.26	–
313.15 K, x2 = 0.248	870.64	–
313.15 K, x2 = 0.2987	875.33	–
313.15 K, x2 = 0.2997	–	25.57
313.15 K, x2 = 0.3417	879.45	–
313.15 K, x2 = 0.4001	–	25.22
313.15 K, x2 = 0.4009	885.2	–
313.15 K, x2 = 0.4487	889.94	–
313.15 K, x2 = 0.5001	–	24.93
313.15 K, x2 = 0.5005	895.18	–
313.15 K, x2 = 0.5501	900.3	–
313.15 K, x2 = 0.5995	905.52	–
313.15 K, x2 = 0.651	911.05	–
313.15 K, x2 = 0.6995	916.4	–
313.15 K, x2 = 0.7495	921.97	–
313.15 K, x2 = 0.8004	927.84	–
313.15 K, x2 = 0.8501	933.7	–
313.15 K, x2 = 0.9001	939.69	–
313.15 K, x2 = 0.9501	945.76	–

Cc1cc(C)cc(C)c1 [1,3,5-trimethylbenzene] + COC(=O)OC
[2]
Conditions	mass density [kg/m3]	surface tension liquid-gas [mN/m]
298.15 K, x2 = 0	861.04	28.09
298.15 K, x2 = 0.054	867.08	–
298.15 K, x2 = 0.1048	872.95	27.91
298.15 K, x2 = 0.1518	878.8	–
298.15 K, x2 = 0.1998	885.1	27.6
298.15 K, x2 = 0.2491	891.85	–
298.15 K, x2 = 0.3001	899.28	27.43
298.15 K, x2 = 0.3496	906.77	–
298.15 K, x2 = 0.3999	–	27.32
298.15 K, x2 = 0.4001	914.84	–
298.15 K, x2 = 0.4499	923.32	–
298.15 K, x2 = 0.4999	932.32	27.34
298.15 K, x2 = 0.5508	942.03	–
298.15 K, x2 = 0.5977	951.57	–
298.15 K, x2 = 0.6488	962.47	–
298.15 K, x2 = 0.7	974.17	–
298.15 K, x2 = 0.7514	986.83	–
298.15 K, x2 = 0.7999	999.6	–
298.15 K, x2 = 0.85	1013.67	–
298.15 K, x2 = 0.8999	1028.84	–
298.15 K, x2 = 0.9499	1045.18	–
313.15 K, x2 = 0	848.73	26.82
313.15 K, x2 = 0.0505	854.19	–
313.15 K, x2 = 0.1009	–	26.42
313.15 K, x2 = 0.1046	860.31	–
313.15 K, x2 = 0.15	865.69	–
313.15 K, x2 = 0.1994	–	26.04
313.15 K, x2 = 0.2007	872.13	–
313.15 K, x2 = 0.2489	878.45	–
313.15 K, x2 = 0.2985	885.42	–
313.15 K, x2 = 0.2996	–	25.8
313.15 K, x2 = 0.35	892.95	–
313.15 K, x2 = 0.3983	900.54	–
313.15 K, x2 = 0.4016	–	25.63
313.15 K, x2 = 0.4498	908.93	–
313.15 K, x2 = 0.5001	917.76	–
313.15 K, x2 = 0.5004	–	25.55
313.15 K, x2 = 0.5492	926.76	–
313.15 K, x2 = 0.5999	936.76	–
313.15 K, x2 = 0.6488	946.86	–
313.15 K, x2 = 0.6992	958.18	–
313.15 K, x2 = 0.7489	969.98	–
313.15 K, x2 = 0.7995	982.91	–
313.15 K, x2 = 0.8479	996.11	–
313.15 K, x2 = 0.8997	1011.33	–
313.15 K, x2 = 0.9501	1027.37	–

CCOC(=O)OCC [diethyl carbonate]
[1]
Conditions	mass density [kg/m3]
298.15 K	969.12
313.15 K	952.15

CCOC(=O)OCC [diethyl carbonate] + Cc1cc(C)cc(C)c1
[2], x1 = 1
Conditions	mass density [kg/m3]
298.15 K	969.12
313.15 K	952.15

CCOC(=O)OCC [diethyl carbonate] + Cc1ccc(C)c(C)c1
[2], x1 = 1
Conditions	mass density [kg/m3]
298.15 K	969.12
313.15 K	952.15

COC(=O)OC [dimethyl carbonate]
[1]
Conditions	mass density [kg/m3]
298.15 K	1062.97
313.15 K	1044.63

COC(=O)OC [dimethyl carbonate] + Cc1cc(C)cc(C)c1
[2], x1 = 1
Conditions	mass density [kg/m3]
298.15 K	1062.97
313.15 K	1044.63

COC(=O)OC [dimethyl carbonate] + Cc1ccc(C)c(C)c1
[2], x1 = 1
Conditions	mass density [kg/m3]
298.15 K	1062.97
313.15 K	1044.63
